Patent US8952169B2 (Genentech, Inc., priority 2012, dated 2015)

Legend:
hNav1.7 [1] = target: T1, hNav1.7 (Homo sapiens (Human), UniProt Q15858); assay: Tritiated aryl sulfonamide binding to membranes from cells expressing hNav1.7 and the β1 subunit (competitive binding); conditions: membranes with hNav1.7 and β1 subunit; [3H]compound displacement, 18 h, room temperature; read-out: NaV1.7 395 Memb Binding (IC50)
Method in brief: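 Competitive displacement of 100 μM [3H]-labelled tritiated aryl sulfonamide from hNav1.7/β1 membranes, 18 h at room temperature in 100 mM NaCl, 20 mM Tris HCl pH 7.4. Non-specific binding defined with 1 μM unlabelled compound. Filter-bound radioactivity measured by liquid scintillation counting.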

hNav1.7 [2] = target: T1, hNav1.7; assay: Patch voltage clamp electrophysiology (PatchXpress), HEK-293 cells, inactivated state block; format: cell-based; conditions: HEK-293 cells, β1 coexpressed; inactivated state, holding −60 mV; read-out: EP_PX 293 hNav1.7 (IC50)

T1 sequence (Q15858 whole entry, looked up): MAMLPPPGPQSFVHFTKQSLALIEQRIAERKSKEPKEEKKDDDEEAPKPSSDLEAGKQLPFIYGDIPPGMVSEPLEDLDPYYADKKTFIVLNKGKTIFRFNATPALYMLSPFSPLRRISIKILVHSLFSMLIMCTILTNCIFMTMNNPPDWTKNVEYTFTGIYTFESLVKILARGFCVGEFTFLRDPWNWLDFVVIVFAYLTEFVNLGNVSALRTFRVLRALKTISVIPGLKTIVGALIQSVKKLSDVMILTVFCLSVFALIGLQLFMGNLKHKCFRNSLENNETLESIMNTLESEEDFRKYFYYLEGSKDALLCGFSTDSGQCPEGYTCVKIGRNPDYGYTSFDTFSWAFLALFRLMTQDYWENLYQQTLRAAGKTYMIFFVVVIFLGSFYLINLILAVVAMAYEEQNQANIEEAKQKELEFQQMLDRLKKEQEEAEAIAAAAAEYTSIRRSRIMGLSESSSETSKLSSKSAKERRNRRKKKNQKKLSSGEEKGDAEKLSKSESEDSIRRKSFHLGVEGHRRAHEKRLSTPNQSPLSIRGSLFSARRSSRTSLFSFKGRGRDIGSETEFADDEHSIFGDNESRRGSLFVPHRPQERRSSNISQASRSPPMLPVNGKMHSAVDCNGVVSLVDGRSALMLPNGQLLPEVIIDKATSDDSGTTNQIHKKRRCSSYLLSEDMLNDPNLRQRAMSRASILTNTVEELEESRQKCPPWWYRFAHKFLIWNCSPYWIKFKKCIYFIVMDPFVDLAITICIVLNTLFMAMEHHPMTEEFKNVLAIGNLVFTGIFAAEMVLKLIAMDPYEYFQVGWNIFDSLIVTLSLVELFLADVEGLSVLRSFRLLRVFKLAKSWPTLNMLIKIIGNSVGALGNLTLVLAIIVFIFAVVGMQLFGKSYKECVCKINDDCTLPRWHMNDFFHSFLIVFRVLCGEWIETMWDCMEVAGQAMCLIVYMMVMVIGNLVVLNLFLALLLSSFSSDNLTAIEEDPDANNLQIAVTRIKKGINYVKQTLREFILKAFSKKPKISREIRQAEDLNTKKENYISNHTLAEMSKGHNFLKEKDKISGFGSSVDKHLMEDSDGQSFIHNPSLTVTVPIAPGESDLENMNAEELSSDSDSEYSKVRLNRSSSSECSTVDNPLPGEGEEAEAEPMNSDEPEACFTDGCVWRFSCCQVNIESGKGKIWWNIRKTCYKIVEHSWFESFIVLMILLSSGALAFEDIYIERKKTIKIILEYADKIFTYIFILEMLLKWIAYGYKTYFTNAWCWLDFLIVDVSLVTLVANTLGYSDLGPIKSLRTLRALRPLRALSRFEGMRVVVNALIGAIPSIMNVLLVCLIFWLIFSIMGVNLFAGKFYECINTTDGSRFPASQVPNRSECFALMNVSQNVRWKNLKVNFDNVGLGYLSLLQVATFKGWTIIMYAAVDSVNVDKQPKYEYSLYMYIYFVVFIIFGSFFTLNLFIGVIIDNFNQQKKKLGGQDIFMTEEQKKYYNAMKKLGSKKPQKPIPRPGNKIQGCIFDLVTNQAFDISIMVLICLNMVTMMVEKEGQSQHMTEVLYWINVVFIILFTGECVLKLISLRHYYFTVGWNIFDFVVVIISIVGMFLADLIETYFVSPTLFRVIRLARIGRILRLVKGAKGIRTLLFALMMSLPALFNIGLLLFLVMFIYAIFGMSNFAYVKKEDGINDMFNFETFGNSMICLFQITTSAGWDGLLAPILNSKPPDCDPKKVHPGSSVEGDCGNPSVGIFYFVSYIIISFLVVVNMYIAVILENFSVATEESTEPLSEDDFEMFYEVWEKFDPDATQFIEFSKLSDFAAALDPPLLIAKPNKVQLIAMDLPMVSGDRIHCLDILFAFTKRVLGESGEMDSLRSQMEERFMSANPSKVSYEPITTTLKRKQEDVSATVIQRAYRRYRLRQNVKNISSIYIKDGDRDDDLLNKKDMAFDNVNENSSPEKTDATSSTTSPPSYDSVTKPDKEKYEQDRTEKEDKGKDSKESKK
T1 sequence (Q07699 whole entry partner, looked up): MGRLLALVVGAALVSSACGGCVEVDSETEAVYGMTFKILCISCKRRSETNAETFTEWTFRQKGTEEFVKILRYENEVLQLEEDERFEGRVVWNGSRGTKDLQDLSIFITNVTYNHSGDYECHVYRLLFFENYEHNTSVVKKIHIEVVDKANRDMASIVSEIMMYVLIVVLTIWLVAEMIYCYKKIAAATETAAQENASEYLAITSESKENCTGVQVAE

| SMILES | IC50 (hNav1.7 [1]) [nM] | IC50 (hNav1.7 [2]) [nM] |
| --- | --- | --- |
| CS(=O)(=O)NC(=O)c1cc(Cl)c(OCC23CC4CC(CC(O)(C4)C2)C3)cc1F | 10000 | 2250 |
| O=C(NS(=O)(=O)N1CCC1)c1cc(Cl)c(OCC2CCC3(CCC3)CC2)cc1F | 25 | 77 |
| CO[C@H]1CCN(S(=O)(=O)NC(=O)c2cc(C3CC3)c(OCC34CC5CC(CC(C5)C3)C4)cc2F)C1 | 29 | 300 |
| O=C(NS(=O)(=O)N1CCC1)c1cc(Cl)c(OCC23CC4CC(CC(C4)C2)C3)c(F)c1F | 370 | 2300 |
| CS(=O)(=O)NC(=O)c1cc(Cl)c(OCC23CC4CC(CC(C4)C2)C3)c(F)c1F | 190 | 1500 |
| O=C(NS(=O)(=O)N1CCC1)c1cc(C2CC2)c(O[C@H]2C3CC4CC2C[C@](F)(C4)C3)cc1F | 20 | 100 |
| O=C(NS(=O)(=O)N1CCC1)c1cc(C2CC2)c(OC2C3CC4CC(C3)CC2C4)cc1F (stereo not drawn) | 10 | 56 |
| O=C(NS(=O)(=O)N1CCC1)c1cc(Cl)c(OC2CCC(F)(F)CC2)cc1F | 980 | 4400 |
| CC1(F)CCC(COc2cc(F)c(C(=O)NS(=O)(=O)N3CCC3)cc2Cl)CC1 (stereo not drawn) | 270 | 280 |
| CS(=O)(=O)NC(=O)c1cc(C2CC2)c(OCC2CCC3C(C2)C3(F)F)cc1F (stereo not drawn) | 21 | 19 |
| O=C(NS(=O)(=O)N1CCC1)c1cc(C2CC2)c(OCC2CCC3C(C2)C3(F)F)cc1F (stereo not drawn) | 15 | 34 |
| COC12CC3CC(C1)C(Oc1cc(F)c(C(=O)NS(C)(=O)=O)cc1Cl)C(C3)C2 (stereo not drawn) | 730 | 610 |
| O=C(NS(=O)(=O)N1CCC1)c1cc(C2CC2)c(OCC2CCC3(CCC3)CC2)cc1F | 4 | 300 |
| O=C(NS(=O)(=O)N1CCC1)c1cc(C2CC2)c(O[C@H]2C3CC4CC2C[C@@](F)(C4)C3)cc1F | 21 | 24 |
| O=C(NS(=O)(=O)N1CCC1)c1cc(C2CC2)c(O[C@H]2C3CC4CC2C[C@@](Cl)(C4)C3)cc1F | 10 | 94 |
| CS(=O)(=O)NC(=O)c1cc(Cl)c(OCC2CC=CCC2)cc1F (stereo not drawn) | 130 | 1300 |
| O=C(NS(=O)(=O)N1CCC1)c1cc(C2CC2(F)F)c(OCC23CC4CC(CC(C4)C2)C3)cc1F (stereo not drawn) | 5 | 340 |
| O=C(NS(=O)(=O)C1CC1)c1cc(C2CC2(F)F)c(OCC23CC4CC(CC(C4)C2)C3)cc1F (stereo not drawn) | 4 | 140 |
| CNS(=O)(=O)NC(=O)c1cc(C2CC2)c(OCC2CN(C(c3ccccc3)c3ccccc3)C2)cc1F | 34 | 600 |
| O=C(NS(=O)(=O)N1CC(F)C1)c1cc(C2CC2)c(O[C@H]2C3CC4CC2C[C@](Cl)(C4)C3)cc1F | 20 | 1200 |
| O=C(NS(=O)(=O)N1CC(F)C1)c1cc(C2CC2)c(O[C@H]2C3CC4CC2C[C@@](Cl)(C4)C3)cc1F | 28 | 890 |
| O=C(NS(=O)(=O)N1CC(F)C1)c1cc(C2CC2)c(OCC2CCC3CC3C2)cc1F (stereo not drawn) | 11 | 520 |
| CC1CCCC(C)C1COc1cc(F)c(C(=O)NS(=O)(=O)N2CCC2)cc1Cl (stereo not drawn) | 25 | 74 |
| O=C(NS(=O)(=O)N1CCC1)c1cc(C2CC2)c(OCC2CC=C(C3CC3)CC2)cc1F (stereo not drawn) | 6 | 10 |
| CO[C@]12CC3CC(C1)[C@@H](Oc1cc(F)c(C(=O)NS(=O)(=O)N4CCC4)cc1C1CC1)C(C3)C2 | 100 | 190 |
| CC1(COc2cc(F)c(C(=O)NS(=O)(=O)N3CCC3)cc2C2CC2)CCC2(CC1)CC2(F)F (stereo not drawn) | 11 | 47 |
| CCc1cc(C(=O)NS(=O)(=O)N2CCC2)c(F)cc1OCC12CC3CC(CC(C3)C1)C2 | 5 | 3.3 |
| O=C(NS(=O)(=O)CCO)c1cc(C2CC2)c(OCC23CC4CC(CC(C4)C2)C3)cc1F | 7 | 4.6 |
| CN(C)S(=O)(=O)NC(=O)c1cc(Cl)c(OCC23CC4CC(CC(Cl)(C4)C2)C3)cc1F | 160 | 85.4 |
| CN(C)S(=O)(=O)NC(=O)c1cc(Cl)c(OCC2(C(F)(F)F)CCC2)cc1F | 294 | 41.6 |

Next, values leading:

| IC50 (hNav1.7 [1]) [nM] | IC50 (hNav1.7 [2]) [nM] | SMILES |
| --- | --- | --- |
| 11 | 43 | O=C(NS(=O)(=O)C1CC1)c1cc(C2CC2)c(O[C@H]2C3CC4CC2C[C@](F)(C4)C3)cc1F |
| 110 | 270 | O=C(NS(=O)(=O)N1CCC1)c1cc(C2CC2)c(OC2CCC(F)(F)CC2)cc1F |
| 43 | 140 | O=C(NS(=O)(=O)C1CC1)c1cc(C2CC2)c(OC2CCC(F)(F)CC2)cc1F |
| 21 | 18 | CS(=O)(=O)NC(=O)c1cc(C2CC2)c(OC2CCC3(CC2)CC3)cc1F |
| 23 | 29 | O=C(NS(=O)(=O)N1CCC1)c1cc(C2CC2)c(OC2CCC3(CC2)CC3)cc1F |
| 8 | 9 | O=C(NS(=O)(=O)C1CC1)c1cc(C2CC2)c(OCC2CCC3C(C2)C3(F)F)cc1F (stereo not drawn) |
| 4 | 24 | O=C(NS(=O)(=O)C1CC1)c1cc(C2CC2)c(O[C@H]2C3CC4CC2C[C@@](Cl)(C4)C3)cc1F |
| 44 | 120 | O=C(NS(=O)(=O)N1CCC1)c1cc(C2CC2)c(OC2CCC(Cl)(Cl)CC2)cc1F |
| 7 | 120 | CS(=O)(=O)NC(=O)c1cc(C2CC2)c(OC2CCC3(CCCCC3)CC2)cc1F |
| 4 | 61 | O=C(NS(=O)(=O)C1CC1)c1cc(C2CC2)c(OC2CCC3(CCCCC3)CC2)cc1F |
| 6 | 53 | CC1(C)CCCC(Oc2cc(F)c(C(=O)NS(=O)(=O)C3CC3)cc2C2CC2)C1 (stereo not drawn) |
| 6.3 | 220 | O=C(NS(=O)(=O)N1CCC1)c1cc(C2CC2)c(OC2CCC3(CCCCC3)CC2)cc1F |
| 23 | 67 | CC1(F)CCC(COc2cc(F)c(C(=O)NS(=O)(=O)N3CCC3)cc2C2CC2)CC1 (stereo not drawn) [listing 1 of 2 here] |
| 9 | 7 | CS(=O)(=O)NC(=O)c1cc(C2CC2)c(O[C@H]2C3CC4CC2C[C@@](Cl)(C4)C3)cc1F |
| 22 | 35 | CC1(F)CCC(COc2cc(F)c(C(=O)NS(=O)(=O)N3CCC3)cc2C2CC2)CC1 (stereo not drawn) [listing 2 of 2 here] |
| 9 | 2 | CS(=O)(=O)NC(=O)c1cc(C2CC2)c(OCC2CCC3CC3C2)cc1F (stereo not drawn) |
| 60 | 390 | CC1CCCC(C)C1COc1cc(F)c(C(=O)NS(=O)(=O)N2CCC2)cc1C1CC1 (stereo not drawn) |
| 22 | 43 | O=C(NS(=O)(=O)N1CCC1)c1cc(C2CC2)c(OCC2CCCC(F)(F)C2)cc1F (stereo not drawn) |
| 66 | 930 | CNS(=O)(=O)NC(=O)c1cc(C2CC2)c(OCC2CCCC(F)(F)C2)cc1F (stereo not drawn) |
| 27 | 420 | CS(=O)(=O)NC(=O)c1cc(C2CC2)c(OCC2CCCC(F)(F)C2)cc1F (stereo not drawn) |
| 3 | 23 | CCS(=O)(=O)NC(=O)c1cc(C2CC2)c(OCC2CCC3(CC2)CC3)cc1F |
| 8 | 28 | CC1CCC(COc2cc(F)c(C(=O)NS(C)(=O)=O)cc2C2CC2)CC1 (stereo not drawn) |
| 5 | 12 | CC1(COc2cc(F)c(C(=O)NS(=O)(=O)C3CC3)cc2C2CC2)CC=CCC1 (stereo not drawn) |
| 4 | 59 | CC1(COc2cc(F)c(C(=O)NS(C)(=O)=O)cc2C2CC2)CCC(C(F)(F)F)CC1 (stereo not drawn) |
